Test results from patent US9555050B2 (BIOGEN MA INC., priority 2012, dated 2017).

Target: T1, Human ATX protein (Homo sapiens, UniProt Q13822)
T1 construct: made in house
Experiment: ATX biochemical FRET assay with FS-3 substrate
Conditions: FS-3 substrate 2 μM, ATX 1.0 μg/mL, 30 min preincubation, 2 hours at room temperature
Source text: ATX (Autotaxin) is a 125 KDa glycoprotein with lysophospholipase D (LPLD) activity that generates the bioactive lipid lysophosphatidic acid (LPA) from lysophosphatidylcholine (LPC). The ATX biochemical assay utilizes a FRET (fluorescence resonance energy transfer) technology platform. The fluorescence signal of FRET substrate FS-3 is quenched due to intra-molecular FRET of a fluorophore to a non-fluorescing quencher (Ferguson, C. G., et al., Org Lett. 2006 May 11; 8(10): 2023-2026, which is incorporated by reference in its entirety). ATX catalyzes the hydrolysis of the substrate which separates the dabsyl quencher from the fluorescein reporter, which becomes fluorescent. The reaction is monitored by a SpectraMax M5 (Molecular Devices, Sunnyvale, Calif.) with at excitation wavelength 485 nm and emission wavelength […].
Fatty acid free-BSA (Sigma A8806): 10 mg/mL in H2O, stored at 4° C.
2×ATX assay buffer: 100 mM Tris, 280 mM NaCl, 10 mM KCl, 2 mM CaCl2, 2 mM MgCl2, pH 7.4.
Human ATX protein: expressed and purified in house. Stored at −80° C.
Substrate FS-3 (Echelon, L-2000): 100 μg in 77.74.L H2O (1 mM stock), stored at −20° C.
384-well flat bottom plates—Corning #3575.
Compound dilution—All compounds were provided at 10 mM in 100% DMSO. In the first well, 2 μL of 10 mM compound was added to 78 μL of DMSO (1:40 dilution). In subsequent wells 3-fold dilution (total 10 dilutions) were performed.
1×ATX assay buffer was made up with a final concentration of 1 mg/mL fatty acid free-BSA using 2×ATX assay buffer, 10 mg/ml fatty acid free-BSA and ddH2O.
ATX protein was diluted with 1×ATX assay buffer to a concentration of 1.32 μg/mL (1.32×). 38 μL was added per well to the assay plate. The final concentration of ATX in the reaction as 1.0 μg/mL.
2 μL per well of compounds was transferred to provide the desired concentration. The plate was centrifuged, then incubated at room temperature for 30 minutes on the shaker.
FS-3 was diluted with 1×ATX assay buffer to a concentration of FS-3 of 10 μM (5×). Then, 10 μL was added per well to the assay plate. The final concentration of FS-3 in the reaction was 2 μM. The plate was centrifuged. The plate was kept shaking at room temperature for 2 hours. Because FS-3 substrate is light sensitive, plates were kept covered and protected from light.
Fluorescence was measured using SpectraMax M5 (excitation at 485 nm/emission at 538 nm, top read).

Row | SMILES | IC50 [µM]
1 | CN(Cc1ccc2c(C(F)(F)F)c(O[C@H]3CC[C@@H](C(F)(F)F)CC3)ccc2c1)C[C@H]1CC[C@H](C(=O)O)CC1 [Example 28, (trans)-4-((methyl((5-(trifluoromethyl)-6-((cis)-4-(trifluoromethyl)cyclohexyloxy)naphthalen-2-yl)methyl)amino)methyl)cyclohexanecarboxylic acid] | ≤ 0.5
2 | CC[C@H](c1ccc2c(C(F)F)c(O[C@H]3CC[C@@H](C)CC3)ccc2c1)N1CCC[C@H](CC(=O)O)C1 [Example 94, 2-((3R)-1-((R)-1-(6-((cis-4-Methylcyclohexyl)oxy)-5-(difluoromethyl)naphthalen-2-yl)propyl)piperidin-3-yl)acetic acid] | ≤ 0.1
3 | FC(F)(F)c1c(O[C@H]2CC[C@@H](C(F)(F)F)CC2)ccc2cc(CN3CCC(c4nn[nH]n4)CC3)ccc12 [Example 5, 4-(2H-tetrazol-5-yl)-1-((5-(trifluoromethyl)-6-((cis-4-(trifluoromethyl)cyclohexyl)oxy)naphthalen-2-yl)methyl)piperidine] | ≤ 0.25
4 | O=C(O)CC1CCCN(Cc2ccc3c(C(F)(F)F)c(O[C@H]4CC[C@@H](C(F)(F)F)CC4)ccc3c2)C1 (relative stereo) [Example 67, 1-((5-(trifluoromethyl)-6-((cis-4-(trifluoromethyl)cyclohexyl)oxy)-naphthalen-2-yl)methyl)piperidine-3-acetic acid] | ≤ 0.25
5 | CCC(c1ccc2c(C(F)F)c(O[C@H]3CC[C@@H](C)CC3)ccc2c1)N1CC(CC(=O)O)C1 (relative stereo) [Example 99, 1-(1-(5-(Difluoromethyl)-6-((cis-4-methylcyclohexyl)oxy)naphthalen-2-yl)propyl)azetidine-3-acetic acid] | ≤ 0.1
6 | O=C(O)C1CCN(Cc2ccc3c(C(F)(F)F)c(O[C@H]4CC[C@@H](C(F)(F)F)CC4)ccc3c2)CC1 [Example 2, 1-((5-(trifluoromethyl)-6-((cis-4-(trifluoromethyl)cyclohexyl)oxy)-naphthalen-2-yl)methyl)piperidine-4-carboxylic acid] | ≤ 0.5
7 | O=C(O)CCC1CCN(Cc2ccc3c(C(F)(F)F)c(O[C@H]4CC[C@@H](C(F)(F)F)CC4)ccc3c2)CC1 [Example 83, 3-(1-((2-(cis-4-(trifluoromethyl)cyclohexyloxy)-1-(trifluoromethyl)naphthalen-6-yl)methyl)piperidine-4-yl)propionic acid] | ≤ 0.5
8 | CC1(C)C(NC(c2ccc3c(C(F)(F)F)c(O[C@H]4CC[C@@H](C(F)(F)F)CC4)ccc3c2)C2CCCCC2)CC1C(=O)O (stereo partly shown) [Example 43] | ≤ 0.5
9 | CC(c1ccc2c(C(F)F)c(O[C@H]3CC[C@@H](C)CC3)ccc2c1)N1CCC(C(=O)O)CC1 (relative stereo) [Example 55, 1-(1-(6-((cis-4-Methylcyclohexyl)oxy)-5-(difluoromethyl)naphthalen-2-yl)ethyl)piperidine-4-carboxylic acid] | ≤ 0.1
10 | C[C@H]1CC[C@@H](Oc2ccc3cc(CN4CCCCC(C(=O)O)C4)ccc3c2C(F)(F)F)CC1 (relative stereo) [Example 48, 1-((5-trifluoromethyl-6-(cis-4-methylcyclohexyloxy)naphthalene-2-yl)methyl)-azepane-3-carboxylic acid] | ≤ 0.5
11 | O=P(O)(O)Cc1ccc(NCc2ccc3c(C(F)(F)F)c(O[C@H]4CC[C@@H](C(F)(F)F)CC4)ccc3c2)cc1 [Example 68, (4-((5-(trifluoromethyl)-6-(cis-4-(trifluoromethyl)cyclohexyloxy)naphthalene-2-yl)methyl)aminophenyl)methylphosphonic acid] | ≤ 0.1
12 | C[C@H]1CC[C@@H](Oc2ccc3cc(CN4CCCC(CC(=O)O)C4)ccc3c2C(F)(F)F)CC1 (stereo partly drawn) [Example 9, 2-(1-((6-((cis-4-methylcyclohexyl)oxy)-5-(trifluoromethyl)naphthalen-2-yl)methyl)piperidin-3-yl)acetic acid] | ≤ 0.25
13 | O=C(O)C[C@H]1CCCN(Cc2ccc3c(C(F)(F)F)c(O[C@H]4CC[C@@H](C(F)(F)F)CC4)ccc3c2)C1 [Example 80, 2-((R)-1-((2-(cis-4-(trifluoromethyl)cyclohexyloxy)-1-(trifluoromethyl)naphthalen-6-yl)methyl)piperidin-3-yl)acetic acid] | ≤ 0.25
14 | CC1(C)C(NCc2ccc3c(C(F)(F)F)c(O[C@H]4CC[C@@H](C(F)(F)F)CC4)ccc3c2)CC1C(=O)O (stereo partly drawn) [Example 1, 2,2-dimethyl-3-(((5-(trifluoromethyl)-6-((cis-4-(trifluoromethyl)cyclo-hexyl)oxy)naphthalen-2-yl)methyl)amino)cyclobutanecarboxylic acid] | ≤ 0.5
15 | CCC(c1ccc2c(C(F)F)c(O[C@H]3CC[C@@H](C)CC3)ccc2c1)N1CCC(C(=O)O)CC1 (relative stereo) [Example 58, 1-(1-(6-((cis-4-Methylcyclohexyl)oxy)-5-(difluoromethyl)naphthalen-2-yl)propyl)piperidine-4-carboxylic acid] | ≤ 0.1
16 | C[C@H](c1ccc2c(C(F)F)c(O[C@H]3CC[C@@H](C)CC3)ccc2c1)N1CCC[C@H](CC(=O)O)C1 [Example 92, 2-((3R)-1-((R)-1-(6-((cis-4-Methylcyclohexyl)oxy)-5-(difluoromethyl)naphthalen-2-yl)ethyl)piperidin-3-yl)acetic acid] | ≤ 0.1
17 | CC(c1ccc2c(C(F)F)c(O[C@H]3CC[C@@H](C)CC3)ccc2c1)N1CCC[C@@H](CC(=O)O)C1 (stereo partly drawn) [Example 54, 2-((3S)-1-(1-(6-((cis-4-Methylcyclohexyl)oxy)-5-(difluoromethyl)naphthalen-2-yl)ethyl)piperidin-3-yl)acetic acid] | ≤ 0.1
18 | O=C(O)CC1CN(Cc2ccc3c(C(F)F)c(O[C@H]4CC[C@@H](C(F)(F)F)CC4)ccc3c2)CCO1 (relative stereo) [Example 32, 2-(4-((5-(difluoromethyl)-6-((cis)-4-(trifluoromethyl)cyclohexyloxy)naphthalen-2-yl)methyl)morpholin-2-yl)acetic acid] | ≤ 0.5
19 | CCC(NC1CC(C(=O)O)C1(C)C)c1ccc2c(C(F)(F)F)c(O[C@H]3CC[C@@H](C)CC3)ccc2c1 (relative stereo) [Example 36, 2,2-dimethyl-3-(1-(6-((cis)-4-methylcyclohexyloxy)-5-(trifluoromethyl)naphthalen-2-yl)propylamino)cyclobutanecarboxylic acid] | ≤ 0.5
20 | CC[C@@H](c1ccc2c(C(F)F)c(O[C@H]3CC[C@@H](C)CC3)ccc2c1)N1CCC[C@H](CC(=O)O)C1 [Example 93, 2-((3R)-1-((S)-1-(6-((cis-4-Methylcyclohexyl)oxy)-5-(difluoromethyl)naphthalen-2-yl)propyl)piperidin-3-yl)acetic acid] | ≤ 0.1
21 | C[C@H]1CC[C@@H](Oc2ccc3cc(C(C(=O)O)N4CCC(C(=O)O)CC4)ccc3c2C(F)(F)F)CC1 (stereo partly drawn) [Example 11, 1-(Carboxy(6-((cis-4-methylcyclohexyl)oxy)-5-(trifluoromethyl)naphthalen-2-yl)methyl)piperidine-4-carboxylic acid] | ≤ 0.5
22 | O=C(O)CCC1CCC(NCc2ccc3c(C(F)(F)F)c(OC4CCC(C(F)(F)F)CC4)ccc3c2)CC1 (stereo not drawn) [Example 73, 3-((4-((5-(trifluoromethyl)-6-(cis-4-(trifluoromethyl)cyclohexyloxy)naphthalene-2-yl)methyl)amino)cyclohexyl)propionic acid] | ≤ 0.5
23 | C[C@H]1CC[C@@H](Oc2ccc3cc(CN4CCC[C@H](CC(=O)O)C4)ccc3c2C(F)(F)F)CC1 [Example 49, 2-((3R)-1-((6-((cis-4-Methylcyclohexyl)oxy)-5-(trifluoromethyl)naphthalen-2-yl)methyl)piperidin-3-yl)acetic acid] | ≤ 0.1
24 | CC(C)CC(NC1CC(C(=O)O)C1(C)C)c1ccc2c(C(F)(F)F)c(O[C@H]3CC[C@@H](C(F)(F)F)CC3)ccc2c1 (relative stereo) [Example 40, 2,2-dimethyl-3-(3-methyl-1-(5-(trifluoromethyl)-6-((cis)-4-(trifluoromethyl)cyclohexyloxy)naphthalen-2-yl)butylamino)cyclobutanecarboxylic acid] | ≤ 0.25
25 | CC(NC1CC(C(=O)O)C1(C)C)c1ccc2c(C(F)(F)F)c(O[C@H]3CC[C@@H](C(F)(F)F)CC3)ccc2n1 (stereo partly drawn) [Example 15, 2,2-dimethyl-3-(((1-(5-(trifluoromethyl)-6-(cis-4-(trifluoromethyl)cyclo-hexyl)oxy)quinolin-2-yl)ethyl)amino)cyclobutanecarboxylic acid] | ≤ 0.25
